Assay results taken from patent US6043283A, “Tyramine compounds and their neuronal effects” (priority 1997, dated 2000).
Entries after “also recorded” stand apart in the source; their conditions may differ.

What was measured:
[1] = test system: NTox; assay: protection of neurons against isolated NTox applied directly; type: cell-based; conditions: for inhibition of killing action of NTox applied to neurons: isolated NTox, FIGS. 13, 32
Excerpt: FIG. 32 is a graph showing the specificity of tyramine compounds to NTox. […].
Initial studies to characterize the neuroprotective effect of tyramine compounds employed microglia-neuron co-culture assays in the presence of Aβ or isolated senile plaques. Inhibition of neuron killing in […]--inhibition of microglial activation by Aβ or plaques; inhibition of NTox production and release by microglia; or inhibition of action of NTox upon neurons. […] Effective doses in the low nmolar range show the tyramine compounds to be very potent agents compared with low μmolar range of other neuroprotective drugs under development for neurological disorders.

[2] = test system: quinolinic acid (QUIN); assay: protection of neurons against quinolinic acid; type: cell-based; conditions: QUIN (100 μM in FIG. 13)
Excerpt: (§1) FIG. 32 is a graph showing the specificity of tyramine compounds to NTox. […]

[3] = test system: AMAA; assay: protection of neurons against AMAA; type: cell-based; conditions: FIG. 32
Excerpt: as §1

[4] = test system: NMDA receptor; assay: whole cell current elicited by NMDA in Xenopus oocytes injected with NMDA R1 and R2 subunit cRNAs; type: cell-based; conditions: FIG. 34
Excerpt: FIG. 34 is a graph shorting the % maximal current peak elicited by NMDA, octopamine and tyramine compounds in the presence of a given NMDA concentration. […].
The precise mechanism of NTox that leads to the destruction of neurons is only partially characterized. Based upon extensive testing with receptor antagonists, it has been discovered that two classes of neurotransmitter receptors are involved--the n-methyl D-aspartate (NMDA) class of […] receptors and the Muscarinic (M receptors) class of cholinergic receptors. […] […]. Further study to determine if tyramine compounds act upon the NMDA receptor itself involved expression of the NMDA receptor complex in Xenopus oocytes and measurement of ionic fluxes across the oocyte membrane that are elicited by NMDA. […] […]. […] Thus, tyramine compounds appear to have several actions, one of which is upon the NMDA receptor.

[5] = test system: Aβ1-42-stimulated microglia; type: cell-based, rat
Method in brief: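 E18 rat hippocampal cultures, microglia depleted with saporin–ac-LDL (10 μg/ml, 12 h) on day 14, then given test substances at 10μM with or without exogenous microglia (100,000 cells) for 72 h. Neurons immunostained (NF plus MAP-2) and nuclei counted by fluorescence microscopy; survival expressed as % of parallel untreated controls.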

[6] = test system: human microglia stimulated with S5; type: cell-based;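 also: drugs applied at 10 µM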
[7] = test system: HEK cells expressing NMDA1b/2A; assay: NTox killing of HEK cells expressing NMDA receptors, trypan blue; type: cell-based, human; conditions: 1 nM NTox, 24 hours
Excerpt: Photomicrograph of trypan blue(+) control HEK cells exposed to NTox. Few blue, dead cells are noted.

[8] = test system: rat microglia; assay: binding of Aβ-coupled microspheres to microglia; conditions: 4 hours at 37° C. (72 h in FIG. 23)
[9] = test system: microglia; assay: inhibition of SpheresAβ1-42 binding to microglia; set-up: species or system rat; conditions: 10 μmoles/l, 4 hours, 37° C.
[10] = test system: plaque-stimulated microglia; assay: blocking of plaque-induced microglial neurotoxicity; type: cell-based, rat; conditions: FIG. 16C
[11] = test system: macrophages; assay: competition with microspheres coupled to Aβ1-42, macrophages; type: binding; conditions: 4 hours at 37° C.
[12] = test system: kidney cells; assay: competition with microspheres coupled to Aβ1-42, kidney cells; type: binding; conditions: 4 hours at 37° C.
[13] = test system: astroglia; type: cell-based, rat; conditions: 100 μmoles/l
Excerpt: FIGS. 21A-D display toxic actions of synthetic Aβ peptides upon neurons. […]. There is, however, a generalized cytotoxic action by Aβ25-35 at>30 μmoles/l on both neurons (FIG. 21A) and astroglia (FIG. 21B). In the absence of microglia, none of the Aβ peptides (at 1 μmole/l) produce destruction of neurons. […] These observations point to the need to deplete neuron cultures of microglia when assessing mechanisms of Aβ toxicity. […]; FIG. 21E).
. Briefly, hippocampal cells obtained from embryonic stage 18 rat fetuses were dispersed mechanically in the presence of 0.125% trypsin and plated onto poly-L-lysine coated glass coverslips in 24 well plates at 250,000 cells per well (resulting in adhering cell densities of about 1250 cells per mm^2) in chemically-defined N2 culture media containing 5% fetal bovine serum. Gradual reduction of serum began on day 10 in vitro with daily 1:1 volume replacements with chemically-defined media, until a final concentration of 0.6% serum was achieved. […]
On day 14 of culture, immediately following saporin treatment, test substances were added to the hippocampal cultures. […] Immuno-labeled cells per field and nuclei per field were scored at 200X magnification using fluorescence microscopy. Data were expressed as % mean survival expressed in terms of parallel untreated control cultures after scoring at least 20 randomly selected fields for each of 3 coverslips.

[14] = test system: hippocampal neurons; type: cell-based, rat; conditions: 100 μmoles/l
[15] = type: physicochemical; conditions: chemically defined culture media, 37° C.; Table 2
Excerpt: Solubility of peptides is described for chemicallydefined culture media a […]

## NC(CCCP(=O)(O)O)C(=O)O (centres unmarked) [AP5]
[1]
  neuroprotective effects against NTox, concentration range: ~100 nM
  inhibition of killing action of NTox applied to neurons: NTox can be blocked
[2]
  protection against quinolinic acid: prevented from killing neurons
[3]
  protection against AMAA: prevented from killing neurons
[4]
  effect on current elicited by NMDA: could be blocked
[5]
  drug blockade of neuron killing, rat microglia: prevented neuronal loss; also recorded: prevented neuron death
[6]
  drug blockade of neuron killing, human microglia: prevented neuron death

## C[C@]12N[C@H](Cc3ccccc31)c1ccccc12 [MK-801]
[1]
  neuroprotective effects against NTox, concentration range: ~100 nM
  inhibition of killing action of NTox applied to neurons: NTox can be blocked
[2]
  protection against quinolinic acid: prevented from killing neurons
[3]
  protection against AMAA: prevented from killing neurons
[4]
  effect on current elicited by NMDA: could be blocked
[7]
  blocking of NTox killing: could be blocked
[5]
  drug blockade of neuron killing, rat microglia: prevented neuronal loss; also recorded: blocked neuron death
[6]
  drug blockade of neuron killing, human microglia: blocked neuron death

## Aβ10-16: Aβ peptide residues 10-16 (YEVHHQK; Amyloid-beta protein 42; UniProt P05067 681-687, looked up, fragment)
[8]
  binding of peptide-coupled microspheres to microglia: readily bind; also recorded: able to bind to microglia
[9]
  inhibition of SpheresAβ1-42 binding by peptides: effectively prevented
[5]; 10 μmoles/liter peptide, 1 μmole/liter Aβ1-42
  blocking of Aβ1-42 induced microglial neurotoxicity by peptides: blocked neurotoxin production
[5]; read-out: ED50 (blocking of Aβ1-42 induced neurotoxicity), FIG. 16B
  IC50: ~30 nM
[10]
  blocking of plaque-induced microglial toxicity by peptides: blocked plaque-induced toxicity in vitro
[11]
  competition with Aβ1-42 microspheres, macrophages: competition occurs with the macrophages in a dose dependent manner
[12]
  competition with Aβ1-42 microspheres, kidney cells: no changes in binding

## Aβ25-35: Aβ peptide residues 25-35 (GSNKGAIIGLM; Amyloid-beta protein 42; UniProt P05067 696-706, looked up, fragment)
[13]
  destruction of glia: ~90%
[8]
  binding of peptide-coupled microspheres to microglia: little cell binding
[14]
  destruction of neurons: ~90%
[15]
  Solubility: soluble
